The values below come from patent US9371295B2, “Compounds for use in the treatment of disorders that are ameliorated by inhibition of HDAC” (IRBM—Science Park S.p.A., priority 2012, dated 2016).

Molecules are shown by their SMILES.

Data set [1] relates to human γ-globin promoter (EGFP reporter) in K562 cells. The data set can be described thus: HbF activation assay on K562 (EGFP/RFP reporter model system for screening of inducers of fetal hemoglobin). Particulars: 60 hours. It counts as cell-based. A digest of the protocol: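 K562 cells stably carrying EGFP under the human γ-globin promoter and far-red FP under the β-globin promoter, with the LCR, were seeded at 1000 cells/well. Cells were exposed to compounds (0.25% DMSO final) for 60 h at 37 °C. Fluorescence was read by plate cytometry, normalized to Hoechst nuclei count, which also indicated proliferation or death.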

The target in another data set is T1, HDAC1 (Homo sapiens, UniProt Q13547).
T1 construct: made in house
The data set can be described thus: HDAC1 assay (Fluor-de-Lys fluorescent deacetylase assay). It counts as biochemical. Particulars: read-out: hHDAC IC50. In a few lines:
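Serially diluted compounds were pre-incubated with purified FLAG-tagged HDAC1 (1-2 nM final; from transfected HeLa cells) or HeLa nuclear extract, then given the Fluor-de-Lys acetyl-lysine substrate/developer; deacetylation read as fluorescence. Reactions were stopped with TSA (3 uM final).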

The test system of another data set is HDAC in Hela cells. Kind of data set: HDAC Hela Cell Based assay.
A short description of data set [2]: Intrinsic clearance in pooled rat liver microsomes. It counts as in vitro ADME. The note with it: pH 7.4. As for the experimental part:
Assays were performed in presence of 0.5 mg/ml of microsomal protein, with a NADPH-generating system (1 mM NADP, 2.5 mM glucose 6-phosphate and 2 U/ml glucose 6-phosphate dehydrogenase) in 100 mM potassium phosphate buffer containing 3.3 mM MgCl2 (pH 7.4). Tested compounds were stored in 10 mM DMSO solution and incubated at 1 μM final concentration (final DMSO concentration in incubation less than 0.1%). Microsomes and substrates were preincubated at 37° C. for 5 min and then the enzymatic reactions were initiated by the addition of cofactors and incubated at 37° C. for up to 90 min. Incubations were terminated by the addition of an equivalent volume of cold acetonitrile containing I.S. Control incubations, where the substrate was incubated in the same buffer system containing pRLM without the NADPH-generating system, were also run.
Background: Liver microsomes are a subcellular fraction often used to study metabolism.

Data set [3] is described as follows: Intrinsic clearance in pooled human liver microsomes. It counts as in vitro ADME. Particulars: pH 7.4.
A short description of data set [4]: Intrinsic clearance in pooled mouse liver microsomes. It counts as in vitro ADME. Particulars: pH 7.4.
Data set [5] can be described thus: Mouse in vivo pharmacokinetics, oral dose. Particulars: plasma, po 10 mg/kg. As for the experimental part: Compounds of the invention were evaluated in in vitro and in vivo pharmacokinetic studies.
A short description of data set [6]: Rat PK studies, oral dose. It counts as in vivo, Sprague-Dawley rats. The note with it: male, Sprague-Dawley, plasma, po 10 mg/kg. As for the experimental part: Rats Male Sprague-Dawley rats (250-350 g) were used for the absorption disposition studies. In each rat an indwelling cannula was implanted in the right jugular vein for blood sampling. The surgery was performed under light anaesthesia (Ketamine-Xilazine (85 mg/kg and 2.5 mg/kg respectively i.m.) one day prior the experiment). During the kinetic study, all animals were housed individually in plastic metabolism cages, and were unrestrained throughout the experiment. Compounds (6 mg/mL) were dissolved in 20% DMSO/60% PEG400/20% water for intravenous administration, and dissolved or suspended in 1% methylcellulose for oral administration (2 mg/ml). After an overnight fast, the rats received an i.v. (via caudal vein) or an oral dose of the compound. Blood samples were collected at different times point after dosing. Plasma was separated immediately after blood sampling by centrifugation, and the plasma samples were kept frozen (−20° C.) until assayed by LC/MS/MS.
Analytical procedures: Plasma samples were extracted using Liquid Handling Robot MultiProbe Packard by protein precipitation with acetonitrile. Then the samples were centrifuged (3000 rpm×15 min at 4° C.) and the supernatant transferred and dried under nitrogen. The samples were reconstituted in water/acetonitrile 90/10 and then injected directly into an HPLC column. Sample analyses were performed using a an API 3000 or/and API 2000 or/and API 4000 Mass Spectrometer interfaced via the Turbo Ion Spray (ESI)/APCI to an LC system consisting of an HTS PAL CTC autosampler and an Agilen HP 1100 Binary Pump. The results are calculated using Analyst Software linear regression with 1/x*x weighting. The Assay Precision was calculated for the Quality Controls by Watson Lims database.
Pharmacokinetic Analysis: The plasma clearance (CLp) of the compounds were calculated (using Watson PK program) as the dose divided by the area under the plasma concentration-time curve from time zero to infinity (AUC0-∞). The apparent half-life was estimated from the slope of the terminal phase of the log plasma concentration-time data. The volume of distribution (Vdss) was determined using the following noncompartmental method: Vdss=(Dose IV×AUMC)/(AUC0-∞)2
where AUMC is the total area under the first moment of the drug concentration time curve from time zero to infinity. Bioavailability was estimated as the AUC0-∞ ratio following oral and intravenous administration, normalized for differences in dose.

The next data set has as its system human γ-globin gene. Particulars: transgenic mice; Cao, H Exp. Hematol. 2005; cited from earlier work.

T1 sequence (Q13547 whole entry): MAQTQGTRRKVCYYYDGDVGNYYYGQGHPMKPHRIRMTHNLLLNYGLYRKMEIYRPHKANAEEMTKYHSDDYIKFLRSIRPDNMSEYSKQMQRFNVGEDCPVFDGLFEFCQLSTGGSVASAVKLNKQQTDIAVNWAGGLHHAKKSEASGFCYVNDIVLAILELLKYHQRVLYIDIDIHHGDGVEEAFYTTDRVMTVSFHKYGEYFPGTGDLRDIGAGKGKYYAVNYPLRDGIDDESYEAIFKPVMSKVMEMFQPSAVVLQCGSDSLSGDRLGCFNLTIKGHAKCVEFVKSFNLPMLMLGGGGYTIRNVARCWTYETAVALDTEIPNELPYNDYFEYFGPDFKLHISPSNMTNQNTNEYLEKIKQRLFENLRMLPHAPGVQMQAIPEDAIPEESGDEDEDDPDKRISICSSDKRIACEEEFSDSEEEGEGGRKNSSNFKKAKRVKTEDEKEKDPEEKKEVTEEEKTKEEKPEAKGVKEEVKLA

What is called EC50 is the concentration giving half of the maximal effect. Read a low EC50 as higher potency in that assay. What is called IC50 is the concentration needed to halve the response being measured. The microsomal CLint is the capacity of the preparation to metabolise the compound, expressed as a volume cleared per time. A high value points to faster metabolism. One may read the AUC as concentration integrated over time. A word on the Cmax: it is the peak of the concentration-time curve. For `CCC(=O)CCCCC[C@H](NC(=O)C1CN(C)C1)c1nnc(-c2cc3ccccc3nc2OC)o1` [Compound 52, (S)-N-(1-(5-(2-methoxyquinolin-3-yl)-1,3,4-oxadiazol-2-yl)-7-oxononyl)-1-methylazetidine-3-carboxamide], the concentration for a half-maximal effect (EC50) in data set [1] was > 1000 nM. Besides, the IC50 at HDAC1 was < 100 nM; in the data set on HDAC in Hela cells, 100 to 1000 nM. In addition, the intrinsic metabolic clearance (microsomal CLint) at 1 μM was 30 µL/min/mg in data set [2], 60 µL/min/mg in data set [3] and 19 µL/min/mg in data set [4]. In addition, the AUC is 1.75 µM·h in data set [5] and 5.91 µM·h in [6]. In addition, the results for the peak concentration (Cmax) in data set [5] and in data set [6] were 630 nM and 580 nM, respectively.

Take `CCCC(=O)NO` [butyryl hydroxamate]: the “increase of human γ/murine α-globin mRNA ratios” value with human γ-globin gene is listed as 33.9%.

With `CCC(=O)NO` [propionyl hydroxamate], the “increase of human γ/murine α-globin mRNA ratios” value in the data set on human γ-globin gene is 71%.
